T/C data for 22 molecules are collected here from PubChem BioAssay AID256 (DTP/NCI, 2004).

Structures are written as SMILES. Where “and” joins values, the source holds several entries; their conditions need not be identical. Identical values can stand only once. Inconclusive results and toxic doses are left out.

The assay deals with CD2F1 mice, L1210 leukemia ip, survival T/C. The assay can be described thus: NCI In Vivo Anticancer Drug Screen. Data for tumor model L1210 Leukemia (intraperitoneal) in CD2F1 (CDF1) mice. As to conditions: endpoint: mean survival time, higher = longer survival. The gist of the method: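 Read-out first: treated-group measurement over vehicle-control measurement, expressed as a ratio. Animals bore a transplanted tumor line and were dosed with compound or vehicle.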

Setting [1] is: dose: 100.0 mg/kg/injection, schedule: Q04DX003 (ip), vehicle: saline with Tween-80.
Where [2] appears, read: dose: 200.0 mg/kg/injection, schedule: Q04DX003 (ip), vehicle: saline with Tween-80.
The mark [3] stands for this setting: dose: 400.0 mg/kg/injection, schedule: Q04DX003 (ip), vehicle: saline with Tween-80.
[4] abbreviates: dose: 200.0 mg/kg/injection, schedule: Q01DX001 (ip), vehicle: Klucel (hydroxypropylcellulose) (HPC).
The mark [5] stands for this setting: dose: 400.0 mg/kg/injection, schedule: Q01DX001 (ip), vehicle: Klucel (hydroxypropylcellulose) (HPC).
[6] abbreviates: dose: 100.0 mg/kg/injection, schedule: Q01DX009 (ip), vehicle: saline with Tween-80.
Where [7] appears, read: dose: 200.0 mg/kg/injection, schedule: Q01DX009 (ip), vehicle: saline with Tween-80.
Where [8] appears, read: dose: 400.0 mg/kg/injection, schedule: Q01DX009 (ip), vehicle: saline with Tween-80.
[9] abbreviates: dose: 25.0 mg/kg/injection, schedule: Q04DX002 (ip), vehicle: saline with Tween-80.
Where [10] appears, read: dose: 50.0 mg/kg/injection, schedule: Q04DX002 (ip), vehicle: saline with Tween-80.
[11] abbreviates: dose: 100.0 mg/kg/injection, schedule: Q04DX002 (ip), vehicle: saline with Tween-80.
[12] abbreviates: dose: 200.0 mg/kg/injection, schedule: Q04DX002 (ip), vehicle: saline with Tween-80.

`COC(=O)c1ccc(N2C(=O)C=CC2=O)cc1`: the T/C is 108 % of control (dose: 1.5 mg/kg/injection, schedule: Q01DX009 (ip), vehicle: saline with Tween-80) and 108 % of control (dose: 3.0 mg/kg/injection, schedule: Q01DX009 (ip), vehicle: saline with Tween-80).
On to `OCCCl`, for which the T/C runs as follows: (dose: 75.0 mg/kg/injection, schedule: Q01DX001 (ip), vehicle: saline) 104 % of control; (dose: 150.0 mg/kg/injection, schedule: Q01DX001 (ip), vehicle: saline) 103 % of control.
In the case of `O=C1c2ccccc2-c2ccc(-c3ccc4c5c(cccc35)C(=O)c3ccccc3-4)c3cccc1c23`, the T/C by setting is: under setting [1], 97 % of control; under setting [2], 97 % of control; under setting [3], 86 % of control.
Regarding `O=C(CC(=O)OCc1ccc([N+](=O)[O-])cc1)OCc1ccc([N+](=O)[O-])cc1`, the T/C is 96 % of control under setting [4] and 93 % of control under setting [5].
With `NC(N)=NCC(=O)O`, the T/C is 94 % of control under setting [1], 102 % of control under setting [2] and 98 % of control under setting [3].
As for `C/C(Cc1ccccc1)=N\O`, the T/C was 103 % of control under setting [1], 100 % of control under setting [2] and 114 % of control under setting [3].
For the molecule `O=C(SSC(=O)c1ccccc1)c1ccccc1`, the T/C is, setting by setting: under setting [6], 95 % of control; under setting [1], 98 % of control; under setting [7], 103 % of control; under setting [2], 102 % of control; under setting [8], 91 % of control; under setting [3], 96 % of control.
On to `C[n+]1ccccc1/C=C/c1cccc([N+](=O)[O-])c1`, for which the T/C is, setting by setting: (dose: 5.0 mg/kg/injection, schedule: Q01DX009 (ip), vehicle: saline with Tween-80) 100 % of control; (dose: 10.0 mg/kg/injection, schedule: Q01DX009 (ip), vehicle: saline with Tween-80) 105 % of control; (dose: 20.0 mg/kg/injection, schedule: Q01DX009 (ip), vehicle: saline with Tween-80) 107 % of control.
For `O=C1OC(=O)C2CC(Br)C(Br)CC12` (stereo unspecified), the T/C reads like this: under setting [6], 95 % of control; under setting [7], 98 % of control; under setting [8], 91 % of control.
On to `Nc1ncnc2nc(-c3ccc(OCc4ccccc4)cc3)[nH]c12`, for which the T/C is 97 % of control (dose: 100.0 mg/kg/injection, schedule: Q01DX001 (ip), vehicle: Klucel (hydroxypropylcellulose) (HPC)); 89 % of control under setting [4]; 95 % of control under setting [5].
As to `BrCC12CCC1(CBr)COC2` (stereo unspecified), the T/C reads like this: (dose: 100.0 mg/kg/injection, schedule: Q04DX003 (ip), vehicle: other) 102 % of control; (dose: 200.0 mg/kg/injection, schedule: Q04DX003 (ip), vehicle: other) 107 % of control; (dose: 400.0 mg/kg/injection, schedule: Q04DX003 (ip), vehicle: other) 96 % of control.
For `C=CCNC(=S)n1cnc(N)n1`, the T/C is 104 % of control under setting [9]; 96 % of control under setting [10]; 104 % of control and 105 % of control under setting [11].
`O=C(CCN1C(=O)c2ccccc2C1=O)c1ccccc1`: the T/C runs as follows: under setting [11], 95 % of control; under setting [12], 89 % of control; (dose: 400.0 mg/kg/injection, schedule: Q04DX002 (ip), vehicle: saline with Tween-80) 92 % of control.
As for `CC(C)c1ccc(P(c2ccc(C(C)C)cc2)c2ccc(C(C)C)cc2)cc1`, the T/C is 103 % of control under setting [9], 88 % of control under setting [10] and 88 % of control under setting [11].
Take `O=C(O)C1(C(=O)O)CCCCC1.[NH2-].[NH2-].[Pt+2]`: the T/C by setting is: (dose: 12.5 mg/kg/injection, schedule: Q04DX003 (ip), vehicle: suspension in saline) 108 % of control; (dose: 25.0 mg/kg/injection, schedule: Q04DX003 (ip), vehicle: suspension in saline) 122 % of control; (dose: 80.0 mg/kg/injection, schedule: Q04DX003 (ip), vehicle: saline) 182 % of control; (dose: 100.0 mg/kg/injection, schedule: Q04DX003 (ip), vehicle: suspension in saline) 112 % of control.
In the case of `CCCC(=O)c1cc(O)ccc1O`, the T/C is, setting by setting: (dose: 100.0 mg/kg/injection, schedule: Q01DX001 (ip), vehicle: saline) 101 % of control; (dose: 200.0 mg/kg/injection, schedule: Q01DX001 (ip), vehicle: saline) 96 % of control; (dose: 400.0 mg/kg/injection, schedule: Q01DX001 (ip), vehicle: saline) 104 % of control.
Regarding `COc1ccc(CCNC(=S)NN)cc1OC`, the T/C was 106 % of control under setting [9], 95 % of control under setting [10], 114 % of control under setting [11] and 103 % of control under setting [12].
`O=C1c2cccc(O)c2C(=O)c2cccc(O)c21`: the T/C under setting [1] was 102 % of control, the T/C under setting [2] was 94 % of control and the T/C under setting [3] is 105 % of control.
In the case of `CC(=O)Oc1ccc(N2C(=O)C3C(C2=O)C2c4ccccc4C3C3CCCCN32)cc1` (stereo unspecified) (tested in a mixture with another compound), the T/C by setting is: (dose: 25.0 mg/kg/injection, schedule: Q01DX009 (ip), vehicle: water) 101 % of control; (dose: 50.0 mg/kg/injection, schedule: Q01DX009 (ip), vehicle: water) 95 % of control; (dose: 100.0 mg/kg/injection, schedule: Q01DX009 (ip), vehicle: water) 95 % of control; (dose: 200.0 mg/kg/injection, schedule: Q01DX009 (ip), vehicle: water) 90 % of control.
Regarding `O=c1[nH]c(=O)n(C2CC(O)C(CO)O2)cc1C1SCCS1` (stereo unspecified), the T/C (dose: 3.8 mg/kg/injection, schedule: Q01DX005 (ip), vehicle: water) was 102 % of control; the T/C (dose: 7.5 mg/kg/injection, schedule: Q01DX005 (ip), vehicle: water) was 98 % of control; the T/C (dose: 15.0 mg/kg/injection, schedule: Q01DX005 (ip), vehicle: water) was 95 % of control; the T/C (dose: 30.0 mg/kg/injection, schedule: Q01DX005 (ip), vehicle: water) is 87 % of control; the T/C (dose: 60.0 mg/kg/injection, schedule: Q01DX005 (ip), vehicle: water) was 106 % of control.
On to `COc1ccc(OC)c2nc(-c3ccccc3)c(-c3ccccc3)nc12`, for which the T/C by setting is: under setting [6], 98 % of control; under setting [7], 97 % of control; under setting [8], 104 % of control.
In the case of `Cc1cc(=O)[nH]c(Nc2ccccc2)n1`, the T/C is 105 % of control under setting [1], 97 % of control under setting [2] and 88 % of control under setting [3].
